Experiment [1] addresses ROCK1 (Homo sapiens, UniProt Q13464). Kind of experiment: ROCK assay (LabChip peptide phosphorylation), ROCK1. The format is biochemical. The conditions noted are these: 5 μM ATP, 1.5 μM peptide substrate.
Experiment [2] deals with IL-1 beta-induced coronary stenosis. The conditions noted are these: porcine model, long term treatment; cited from earlier work.
Experiment [3] relates to neointimal formation. The conditions noted are these: rats, model similar to balloon injury; cited from earlier work.
Experiment [4] deals with three rat models of hypertension. The conditions noted are these: cited from earlier work.

The structures appear in SMILES notation. Read-outs that look alike come from different tables or passages of the source.

Sequence of ROCK1 (Q13464 whole entry, species assumed): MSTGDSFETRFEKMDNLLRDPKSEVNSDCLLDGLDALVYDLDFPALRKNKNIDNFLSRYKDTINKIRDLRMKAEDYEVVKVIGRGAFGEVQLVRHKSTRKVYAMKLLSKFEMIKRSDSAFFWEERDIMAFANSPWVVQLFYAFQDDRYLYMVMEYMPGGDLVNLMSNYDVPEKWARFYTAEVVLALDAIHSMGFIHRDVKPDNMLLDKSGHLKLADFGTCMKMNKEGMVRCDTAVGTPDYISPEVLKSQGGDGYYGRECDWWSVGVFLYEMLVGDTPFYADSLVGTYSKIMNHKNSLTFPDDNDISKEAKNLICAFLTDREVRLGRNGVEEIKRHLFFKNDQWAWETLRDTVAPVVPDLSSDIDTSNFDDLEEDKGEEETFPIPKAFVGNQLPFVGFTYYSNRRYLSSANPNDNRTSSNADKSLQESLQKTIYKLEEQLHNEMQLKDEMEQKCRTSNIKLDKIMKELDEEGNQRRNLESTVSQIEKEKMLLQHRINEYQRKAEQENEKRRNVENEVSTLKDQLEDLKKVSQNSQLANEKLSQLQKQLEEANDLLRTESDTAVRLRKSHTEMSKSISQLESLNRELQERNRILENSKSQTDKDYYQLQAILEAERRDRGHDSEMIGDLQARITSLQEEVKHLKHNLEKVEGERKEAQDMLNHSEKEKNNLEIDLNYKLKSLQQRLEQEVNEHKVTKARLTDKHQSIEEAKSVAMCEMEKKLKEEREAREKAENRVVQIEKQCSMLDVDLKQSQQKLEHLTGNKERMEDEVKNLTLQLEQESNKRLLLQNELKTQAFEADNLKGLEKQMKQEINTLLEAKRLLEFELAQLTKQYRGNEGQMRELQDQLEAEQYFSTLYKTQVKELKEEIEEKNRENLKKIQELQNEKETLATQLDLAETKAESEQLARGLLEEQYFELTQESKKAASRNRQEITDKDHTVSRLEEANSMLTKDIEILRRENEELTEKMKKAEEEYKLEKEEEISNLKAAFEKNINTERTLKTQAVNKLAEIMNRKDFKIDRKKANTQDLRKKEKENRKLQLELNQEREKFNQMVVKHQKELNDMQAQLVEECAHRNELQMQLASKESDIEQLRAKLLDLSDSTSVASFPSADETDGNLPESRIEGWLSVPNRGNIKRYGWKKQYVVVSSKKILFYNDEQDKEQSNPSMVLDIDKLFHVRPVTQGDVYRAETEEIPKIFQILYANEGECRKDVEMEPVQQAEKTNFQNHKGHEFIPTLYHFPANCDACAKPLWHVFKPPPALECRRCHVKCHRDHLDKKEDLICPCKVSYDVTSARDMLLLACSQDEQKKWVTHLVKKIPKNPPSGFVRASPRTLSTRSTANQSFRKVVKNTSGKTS

`COc1cc(C(=O)NCc2cccc(O)c2)ccc1-c1cn[nH]c1` [Example 6, N-(3-hydroxybenzyl)-3-methoxy-4-(1H-pyrazol-4-yl)benzamide] showed a half-inhibitory concentration (IC50) in experiment [1] of 0.85 nM. This lies in the sub-nanomolar range.

In the case of `COC(=O)c1cccc(CNC(=O)c2ccc(-c3cn[nH]c3)c(OC)c2)c1` [Example 8, methyl 3-((3-methoxy-4-(1H-pyrazol-4-yl)benzamido)methyl)benzo-ate], in experiment [1], inhibition was half-maximal at 2.63 nM (IC50).

The compound `COc1cc(C(=O)NC(C)c2cc(F)cc(F)c2)ccc1-c1cn[nH]c1` (racemic) [Example 67, (+/−)-N-(1-(3,5-difluorophenyl)ethyl)-3-methoxy-4-(1H-pyrazol-4-yl)benzamide] came in with a half-maximal inhibitory concentration (IC50) in experiment [1] of 26.5 nM.

Take `O=S(=O)(c1cccc2cnccc12)N1CCCNCC1` [fasudil]: in experiment [2], the coronary constrictive remodeling entry is listed as “promote a regression of coronary constrictive remodeling” and the coronary stenosis result is given as “progressively reduce coronary stenosis”.

With `C[C@@H](N)[C@H]1CC[C@H](C(=O)Nc2ccncc2)CC1` [Example Y-27632, Y-27632], the neointimal formation entry in experiment [3] is reported as “inhibited neointimal formation”. For the same compound, the blood pressure result in experiment [4] (control rats) is “only a minor effect on blood pressure”; in experiment [4] (spontaneously hypertensive rat, renal hypertensive rat and deoxycortisone acetate salt hypertensive rat models) it was “significantly decrease blood pressure”.

The compound `CNC(=O)c1cccc(CNC(=O)c2ccc(-c3cn[nH]c3)c(OC)c2)c1` [Example 65, 3-methoxy-N-(3-(methylcarbamoyl)benzyl)-4-(1H-pyrazol-4-yl)benzamide] returned a 50% inhibitory concentration (IC50) in experiment [1] of 3.05 nM.

As a reminder, the IC50 is the concentration that gives 50% inhibition. Read a high IC50 as lower potency.

Values taken from patent publication US9126944B2, “Phenylpyrazole derivatives as potent ROCK1 and ROCK2 inhibitors” (BRISTOL-MYERS SQUIBB COMPANY, priority 2013, dated 2015).
